Test results taken from patent US11040031B2, “Pyrazole derivatives as MALT1 inhibitors” (Janssen Pharmaceutica NV, priority 2018, dated 2021).

biological target: T1, full-length MALT1 protein (Strep-MALT1(1-824)-His) (Homo sapiens, UniProt Q9UDY8); test: biochemical
T1 sequence (Q9UDY8 1-824): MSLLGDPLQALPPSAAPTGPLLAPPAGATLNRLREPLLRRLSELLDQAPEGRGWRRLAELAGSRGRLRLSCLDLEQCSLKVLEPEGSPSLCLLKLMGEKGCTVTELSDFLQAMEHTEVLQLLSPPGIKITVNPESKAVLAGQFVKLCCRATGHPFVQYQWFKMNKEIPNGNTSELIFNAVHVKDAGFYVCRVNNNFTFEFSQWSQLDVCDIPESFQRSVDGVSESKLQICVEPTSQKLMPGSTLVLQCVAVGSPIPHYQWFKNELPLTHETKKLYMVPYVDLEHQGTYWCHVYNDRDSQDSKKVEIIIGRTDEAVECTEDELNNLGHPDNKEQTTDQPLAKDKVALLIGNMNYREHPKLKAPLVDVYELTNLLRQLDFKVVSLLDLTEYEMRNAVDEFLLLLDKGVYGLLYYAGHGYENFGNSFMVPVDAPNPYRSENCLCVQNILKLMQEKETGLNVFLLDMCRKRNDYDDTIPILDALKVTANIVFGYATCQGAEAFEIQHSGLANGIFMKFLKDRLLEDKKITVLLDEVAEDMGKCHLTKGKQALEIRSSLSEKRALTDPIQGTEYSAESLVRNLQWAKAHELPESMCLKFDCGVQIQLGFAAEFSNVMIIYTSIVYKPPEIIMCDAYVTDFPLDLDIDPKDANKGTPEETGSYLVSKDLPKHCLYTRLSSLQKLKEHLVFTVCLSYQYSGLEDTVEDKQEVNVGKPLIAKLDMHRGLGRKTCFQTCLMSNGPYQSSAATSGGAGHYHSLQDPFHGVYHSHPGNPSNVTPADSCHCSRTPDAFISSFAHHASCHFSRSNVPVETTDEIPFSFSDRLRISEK
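Also: fluorogenic LRSR-AMC substrate cleavage by MALT1, 50 min compound preincubation then 4 h reaction at RT, 11-point dilution from 30 µM, scaled between enzyme-free and untreated enzyme controls.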
Method: MALT1 protease activity was assessed in an in vitro assay using a tetrapeptide as substrate and full-length MALT1 protein (Strep-MALT1(1-824)-His) purified from baculovirus-infected insect cells. The tetrapeptide LRSR is coupled to AMC (7-amino-4-methylcoumarin) and provides a quenched, fluorescent substrate for the MALT1 protease (SM Biochemicals). Cleavage of AMC from the Arginine residue results in an increase in coumarin fluorescence measured at 460 nm (excitation 355 nm). […] Test compounds were spotted at 50 nL in 100% DMSO per well of a black 384-Proxiplate (Perkin Elmer). Test compound concentrations ranged from 30 μM to 0.5 nM using 11 dilution steps (1:3). Background signal was measured from control wells containing assay buffer without enzyme which functions as low control (LC). High control (HC) values were generated using the reaction with enzyme but no compound treatment. Compounds were pre-incubated with MALT1 enzyme for 50 minutes at RT. Substrate was added subsequently and fluorescence was measured in Labsystems fluoroskan at excitation 355 nm and emission 460 nm to determine time 0. The reaction was subsequently incubated for 4 h at RT and fluorescence was measured. […] The enzyme reaction was linear during the 4 h incubation period.
IC50 values were calculated using the following formula (Z prime should be >0.5):
From this an IC50 value (inhibitory concentration causing 50% inhibition) can be obtained. An estimate of the slope of the plot in terms of the Hill coefficient was also obtained.
With y=estimated response • UB=upper bound • LB=lower bound • h=hill

In order of rising IC50:
1. Cc1nc(-n2nccn2)c(Cl)cc1NC(=O)c1cnn(-c2ccc(C#N)c(N)n2)c1C(F)(F)F [Cpd 178, 1-(6-amino-5-cyanopyridin-2-yl)-N-(5-chloro-2-methyl-6-(2H-1,2,3-triazol-2-yl)pyridin-3-yl)-5-(trifluoromethyl)-1H-pyrazole-4-carboxamide]  200 nM
2. Cc1c(-n2ncc(C(=O)Nc3cnc(-n4nccn4)c(Cl)c3)c2C(F)(F)F)ccnc1Cl [Cpd 155, 1-(2-chloro-3-methylpyridin-4-yl)-N-(5-chloro-6-(2H-1,2,3-triazol-2-yl)pyridin-3-yl)-5-(trifluoromethyl)-1H-pyrazole-4-carboxamide]  257 nM
3. N#Cc1cc(NC(=O)c2cnn(-c3cccc(N)n3)c2C(F)(F)F)cnc1-n1nccn1 [Cpd 134, 1-(6-aminopyridin-2-yl)-N-(5-cyano-6-(2H-1,2,3-triazol-2-yl)pyridin-3-yl)-5-(trifluoromethyl)-1H-pyrazole-4-carboxamide]  263 nM
4. Cc1ccc(-n2ncc(C(=O)Nc3cnc(-n4nccn4)c(Cl)c3)c2C(F)(F)F)nc1N [Cpd 184, 1-(6-amino-5-methylpyridin-2-yl)-N-(5-chloro-6-(2H-1,2,3-triazol-2-yl)pyridin-3-yl)-5-(trifluoromethyl)-1H-pyrazole-4-carboxamide]  331 nM
5. Cc1cc(F)c(N)nc1-n1ncc(C(=O)Nc2cc(C#N)c(-n3nccn3)nc2C)c1C(F)(F)F [Cpd 186, 1-(6-amino-5-fluoro-3-methylpyridin-2-yl)-N-(5-cyano-2-methyl-6-(2H-1,2,3-triazol-2-yl)pyridin-3-yl)-5-(trifluoromethyl)-1H-pyrazole-4-carboxamide]  339 nM
6. CN1CCCc2c1cccc2-n1ncc(C(=O)Nc2cnc(-n3nccn3)c(C#N)c2)c1C(F)(F)F [Cpd 127, N-(5-cyano-6-(2H-1,2,3-triazol-2-yl)pyridin-3-yl)-1-(1-methyl-1,2,3,4-tetrahydroquinolin-5-yl)-5-(trifluoromethyl)-1H-pyrazole-4-carboxamide]  372 nM
7. N#Cc1cc(NC(=O)c2cnn(-c3nc(N)ccc3C(F)(F)F)c2C(F)(F)F)cnc1-n1nccn1 [Cpd 187, 1-(6-amino-3-(trifluoromethyl)pyridin-2-yl)-N-(5-cyano-6-(2H-1,2,3-triazol-2-yl)pyridin-3-yl)-5-(trifluoromethyl)-1H-pyrazole-4-carboxamide]  380 nM
8. Cc1cc(F)c(N)nc1-n1ncc(C(=O)Nc2cc(Cl)c(-n3nccn3)nc2C)c1C(F)(F)F [Cpd 188, 1-(6-amino-5-fluoro-3-methylpyridin-2-yl)-N-(5-chloro-2-methyl-6-(2H-1,2,3-triazol-2-yl)pyridin-3-yl)-5-(trifluoromethyl)-1H-pyrazole-4-carboxamide]  380 nM
9. CNc1cccc(-n2ncc(C(=O)Nc3cnc(-n4nccn4)c(C#N)c3)c2C(F)(F)F)n1 [Cpd 189, N-(5-cyano-6-(2H-1,2,3-triazol-2-yl)pyridin-3-yl)-1-(6-(methylamino)pyridin-2-yl)-5-(trifluoromethyl)-1H-pyrazole-4-carboxamide]  437 nM
10. Cc1cc(N)ncc1-n1ncc(C(=O)Nc2cnc(-n3nccn3)c(C#N)c2)c1C(F)(F)F [Cpd 190, 1-(6-amino-4-methylpyridin-3-yl)-N-(5-cyano-6-(2H-1,2,3-triazol-2-yl)pyridin-3-yl)-5-(trifluoromethyl)-1H-pyrazole-4-carboxamide]  447 nM
11. N#Cc1cc(F)ccc1-n1ncc(C(=O)Nc2cnc(-n3nccn3)c(C#N)c2)c1C(F)(F)F [Cpd 135, 1-(2-cyano-4-fluorophenyl)-N-(5-cyano-6-(2H-1,2,3-triazol-2-yl)pyridin-3-yl)-5-(trifluoromethyl)-1H-pyrazole-4-carboxamide]  525 nM
12. Cc1nc(-n2ncc(C(=O)Nc3cnc(-n4nccn4)c(Cl)c3)c2C(F)(F)F)ccc1F [Cpd 161, N-(5-chloro-6-(2H-1,2,3-triazol-2-yl)pyridin-3-yl)-1-(5-fluoro-6-methylpyridin-2-yl)-5-(trifluoromethyl)-1H-pyrazole-4-carboxamide]  741 nM
13. N#Cc1cc(F)ccc1-n1ncc(C(=O)Nc2cnc(-n3nccn3)c(Cl)c2)c1C(F)(F)F [Cpd 136, N-(5-chloro-6-(2H-1,2,3-triazol-2-yl)pyridin-3-yl)-1-(2-cyano-4-fluorophenyl)-5-(trifluoromethyl)-1H-pyrazole-4-carboxamide]  759 nM
14. N#Cc1cc(NC(=O)c2cnn(-c3ccc(F)nc3)c2C(F)(F)F)cnc1-n1nccn1 [Cpd 123, N-(5-cyano-6-(2H-1,2,3-triazol-2-yl)pyridin-3-yl)-1-(6-(fluoro)pyridin-3-yl)-5-(trifluoromethyl)-1H-pyrazole-4-carboxamide]  794 nM
15. O=C(Nc1cnc(-n2nccn2)c(Cl)c1)c1cnn(-c2nc(Cl)ccc2Cl)c1C(F)(F)F [Cpd 163, N-(5-chloro-6-(2H-1,2,3-triazol-2-yl)pyridin-3-yl)-1-(3,6-dichloropyridin-2-yl)-5-(trifluoromethyl)-1H-pyrazole-4-carboxamide]  794 nM
16. N#Cc1cc(NC(=O)c2cnn(-c3ccc(F)c(N4CC(O)C4)n3)c2C(F)(F)F)cnc1-n1nccn1 [Cpd 152, N-(5-cyano-6-(2H-1,2,3-triazol-2-yl)pyridin-3-yl)-1-(5-fluoro-6-(3-hydroxyazetidin-1-yl)pyridin-2-yl)-5-(trifluoromethyl)-1H-pyrazole-4-carboxamide]  832 nM
17. Cc1cnc(Cl)cc1-n1ncc(C(=O)Nc2cnc(-n3nccn3)c(Cl)c2)c1C(F)(F)F [Cpd 154, 1-(2-chloro-5-methyl-4-pyridyl)-N-[5-chloro-6-(triazol-2-yl)-3-pyridyl]-5-(trifluoromethyl)pyrazole-4-carboxamide]  955 nM
18. CNc1ccc(-n2ncc(C(=O)Nc3cnc(-n4nccn4)c(C#N)c3)c2C(F)(F)F)cn1 [Cpd 124, N-(5-cyano-6-(2H-1,2,3-triazol-2-yl)pyridin-3-yl)-1-(6-(methylamino)pyridin-3-yl)-5-(trifluoromethyl)-1H-pyrazole-4-carboxamide]  1200 nM
19. Cc1cnc(N2CC(O)C2)cc1-n1ncc(C(=O)Nc2cnc(-n3nccn3)c(Cl)c2)c1C(F)(F)F [Cpd 156, N-(5-chloro-6-(2H-1,2,3-triazol-2-yl)pyridin-3-yl)-1-(2-(3-hydroxyazetidin-1-yl)-5-methylpyridin-4-yl)-5-(trifluoromethyl)-1H-pyrazole-4-carboxamide]  1290 nM
20. N#Cc1cc(NC(=O)c2cnn(-c3nc(Cl)ccc3C(F)(F)F)c2C(F)(F)F)cnc1-n1nccn1 [Cpd 164, 1-(6-chloro-3-(trifluoromethyl)pyridin-2-yl)-N-(5-cyano-6-(2H-1,2,3-triazol-2-yl)pyridin-3-yl)-5-(trifluoromethyl)-1H-pyrazole-4-carboxamide]  1410 nM
21. Nc1ccc(-n2ncc(C(=O)Nc3cnc(-n4nccn4)c(Cl)c3)c2C(F)(F)F)cn1 [Cpd 125, 1-(6-aminopyridin-3-yl)-N-(5-chloro-6-(2H-1,2,3-triazol-2-yl)pyridin-3-yl)-5-(trifluoromethyl)-1H-pyrazole-4-carboxamide]  1910 nM
22. O=C(Nc1cnc(-n2nccn2)c(Cl)c1)c1cnn(-c2nc(Cl)ccc2C(F)(F)F)c1C(F)(F)F [Cpd 165, 1-(6-chloro-3-(trifluoromethyl)pyridin-2-yl)-N-(5-chloro-6-(2H-1,2,3-triazol-2-yl)pyridin-3-yl)-5-(trifluoromethyl)-1H-pyrazole-4-carboxamide]  2290 nM
23. O=C(Nc1cnc(-n2nccn2)c(Cl)c1)c1cnn(-c2ccc(F)c(N3CC(O)C3)n2)c1C(F)(F)F [Cpd 151, N-(5-chloro-6-(2H-1,2,3-triazol-2-yl)pyridin-3-yl)-1-(5-fluoro-6-(3-hydroxyazetidin-1-yl)pyridin-2-yl)-5-(trifluoromethyl)-1H-pyrazole-4-carboxamide]  2400 nM
24. Cc1ccnnc1-n1ncc(C(=O)Nc2cnc(-n3nccn3)c(Cl)c2)c1C(F)(F)F [Cpd 159, N-(5-chloro-6-(2H-1,2,3-triazol-2-yl)pyridin-3-yl)-1-(4-methylpyridazin-3-yl)-5-(trifluoromethyl)-1H-pyrazole-4-carboxamide]  3160 nM
25. Cc1c[n+]([O-])ccc1-n1ncc(C(=O)Nc2cnc(-n3nccn3)c(Cl)c2)c1C(F)(F)F [Cpd 153, 4-(4-((5-chloro-6-(2H-1,2,3-triazol-2-yl)pyridin-3-yl)carbamoyl)-5-(trifluoromethyl)-1H-pyrazol-1-yl)-3-methylpyridine 1-oxide]  4900 nM
26. CS(=O)(=O)c1ccccc1-n1ncc(C(=O)Nc2cnc(-n3nccn3)c(Cl)c2)c1C(F)(F)F [Cpd 138, N-(5-chloro-6-(2H-1,2,3-triazol-2-yl)pyridin-3-yl)-1-(2-(methylsulfonyl)phenyl)-5-(trifluoromethyl)-1H-pyrazole-4-carboxamide]  5490 nM
27. Cc1c(-n2ncc(C(=O)Nc3cnc(-n4nccn4)c(Cl)c3)c2C(F)(F)F)ccnc1N1CC(O)C1 [Cpd 157, N-(5-chloro-6-(2H-1,2,3-triazol-2-yl)pyridin-3-yl)-1-(2-(3-hydroxyazetidin-1-yl)-3-methylpyridin-4-yl)-5-(trifluoromethyl)-1H-pyrazole-4-carboxamide]  8130 nM
